According to US20200181117A1, “SUBSTITUTED 3-HETEROARYLOXY-1H-PYRAZOLES AND SALTS THEREOF AND THEIR USE AS HERBICIDAL ACTIVE SUBSTANCES” (BAYER CROPSCIENCE AKTIENGESELLSCHAFT, priority 2017, published 2020):

Columns and labels:
Assay type in all cases: in vivo
Abutilon theophrasti [1] = assay: Post-emergence herbicidal action; conditions: 1280 g/ha, rated visually after about 3 weeks vs untreated controls
How it was run: (§1)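 Greenhouse post-emergence spray at one-leaf stage, 1280 g/ha, 600 l/ha water with 0.5% additive; efficacy rated visually after roughly 3 weeks, 0% meaning like controls and 100% meaning dead plants.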

Alopecurus myosuroides [2] = assay: Post-emergence herbicidal action; conditions: 1280 g/ha, rated visually after about 3 weeks vs untreated controls
How it was run: as §1

Amaranthus retroflexus [3] = assay: Post-emergence herbicidal action; conditions: 1280 g/ha, rated visually after about 3 weeks vs untreated controls
How it was run: as §1

Avena fatua [4] = assay: Post-emergence herbicidal action; conditions: 1280 g/ha, rated visually after about 3 weeks vs untreated controls
How it was run: as §1

Echinochloa crus-galli [5] = assay: Post-emergence herbicidal action; conditions: 1280 g/ha, rated visually after about 3 weeks vs untreated controls
How it was run: as §1

Lolium rigidum [6] = assay: Post-emergence herbicidal action; conditions: 1280 g/ha, rated visually after about 3 weeks vs untreated controls
How it was run: as §1

Polygonum convolvulus [7] = assay: Post-emergence herbicidal action; conditions: 1280 g/ha, rated visually after about 3 weeks vs untreated controls
How it was run: as §1

Setaria viridis [8] = assay: Post-emergence herbicidal action; conditions: 1280 g/ha, rated visually after about 3 weeks vs untreated controls
How it was run: as §1

Stellaria media [9] = assay: Post-emergence herbicidal action; conditions: 1280 g/ha, rated visually after about 3 weeks vs untreated controls
How it was run: as §1

Viola tricolor [10] = assay: Post-emergence herbicidal action; conditions: 1280 g/ha, rated visually after about 3 weeks vs untreated controls
How it was run: as §1

Abutilon theophrasti [11] = assay: Pre-emergence herbicidal action; conditions: 1280 g/ha, scored visually after about 3 weeks vs untreated controls
How it was run: (§2)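 Soil-applied pre-emergence test: WP/EC formulations in water (600 l/ha, 0.5% additive) at 1280 g/ha on covered seeds; greenhouse; visual % rating at ~3 weeks, 100% meaning dead plants.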

Alopecurus myosuroides [12] = assay: Pre-emergence herbicidal action; conditions: 1280 g/ha, scored visually after about 3 weeks vs untreated controls
How it was run: as §2

Amaranthus retroflexus [13] = assay: Pre-emergence herbicidal action; conditions: 1280 g/ha, scored visually after about 3 weeks vs untreated controls
How it was run: as §2

Avena fatua [14] = assay: Pre-emergence herbicidal action; conditions: 1280 g/ha, scored visually after about 3 weeks vs untreated controls
How it was run: as §2

Echinochloa crus-galli [15] = assay: Pre-emergence herbicidal action; conditions: 1280 g/ha, scored visually after about 3 weeks vs untreated controls
How it was run: as §2

Hordeum murinum [16] = assay: Pre-emergence herbicidal action; conditions: 1280 g/ha, scored visually after about 3 weeks vs untreated controls
How it was run: as §2

Lolium rigidum [17] = assay: Pre-emergence herbicidal action; conditions: 1280 g/ha, scored visually after about 3 weeks vs untreated controls
How it was run: as §2

Matricaria inodora [18] = assay: Pre-emergence herbicidal action; conditions: 1280 g/ha, scored visually after about 3 weeks vs untreated controls
How it was run: as §2

Pharbitis purpurea [19] = assay: Pre-emergence herbicidal action; conditions: 1280 g/ha, scored visually after about 3 weeks vs untreated controls
How it was run: as §2

Setaria viridis [20] = assay: Pre-emergence herbicidal action; conditions: 1280 g/ha, scored visually after about 3 weeks vs untreated controls
How it was run: as §2

Stellaria media [21] = assay: Pre-emergence herbicidal action; conditions: 1280 g/ha, scored visually after about 3 weeks vs untreated controls
How it was run: as §2

Veronica persica [22] = assay: Pre-emergence herbicidal action; conditions: 1280 g/ha, scored visually after about 3 weeks vs untreated controls
How it was run: as §2

Viola tricolor [23] = assay: Pre-emergence herbicidal action; conditions: 1280 g/ha, scored visually after about 3 weeks vs untreated controls
How it was run: as §2

Matricaria inodora [24] = assay: Post-emergence herbicidal action; conditions: 1280 g/ha, rated visually after about 3 weeks vs untreated controls
How it was run: as §1

Veronica persica [25] = assay: Post-emergence herbicidal action; conditions: 1280 g/ha, rated visually after about 3 weeks vs untreated controls
How it was run: as §1

Polygonum convolvulus [26] = assay: Pre-emergence herbicidal action; conditions: 1280 g/ha, scored visually after about 3 weeks vs untreated controls
How it was run: as §2

Pharbitis purpurea [27] = assay: Post-emergence herbicidal action; conditions: 1280 g/ha, rated visually after about 3 weeks vs untreated controls
How it was run: as §1

Hordeum murinum [28] = assay: Post-emergence herbicidal action; conditions: 1280 g/ha, rated visually after about 3 weeks vs untreated controls
How it was run: as §1

SMILES | herbicidal activity on Abutilon theophrasti (Abutilon theophrasti [1]) [%] | herbicidal activity on Alopecurus myosuroides (Alopecurus myosuroides [2]) [%] | herbicidal activity on Amaranthus retroflexus (Amaranthus retroflexus [3]) [%] | herbicidal activity on Echinochloa crus-galli (Echinochloa crus-galli [5]) [%] | herbicidal activity on Polygonum convolvulus (Polygonum convolvulus [7]) [%] | herbicidal activity on Setaria viridis (Setaria viridis [8]) [%] | herbicidal activity on Stellaria media (Stellaria media [9]) [%] | herbicidal activity on Viola tricolor (Viola tricolor [10]) [%] | herbicidal activity on Abutilon theophrasti (Abutilon theophrasti [11]) [%] | herbicidal activity on Alopecurus myosuroides (Alopecurus myosuroides [12]) [%] | herbicidal activity on Amaranthus retroflexus (Amaranthus retroflexus [13]) [%] | herbicidal activity on Avena fatua (Avena fatua [14]) [%] | herbicidal activity on Echinochloa crus-galli (Echinochloa crus-galli [15]) [%] | herbicidal activity on Hordeum murinum (Hordeum murinum [16]) [%] | herbicidal activity on Lolium rigidum (Lolium rigidum [17]) [%] | herbicidal activity on Matricaria inodora (Matricaria inodora [18]) [%] | herbicidal activity on Setaria viridis (Setaria viridis [20]) [%] | herbicidal activity on Stellaria media (Stellaria media [21]) [%] | herbicidal activity on Viola tricolor (Viola tricolor [23]) [%] | herbicidal activity on Polygonum convolvulus (Polygonum convolvulus [26]) [%] | also measured
Cc1c(Sc2ccc(F)c(F)c2)c(Oc2ncccn2)nn1C [Example I-036] | 90 | 90 | 100 | 90 | 100 | 90 | 90 | 100 | 100 | 90 | 90 | 90 | 100 | 100 | 100 | 90 | 100 | 100 | 100 | – | herbicidal activity on Avena fatua (Avena fatua [4]): 100%; herbicidal activity on Lolium rigidum (Lolium rigidum [6]): 90%; herbicidal activity on Pharbitis purpurea (Pharbitis purpurea [19]): 80%; herbicidal activity on Veronica persica (Veronica persica [22]): 100%
Cc1c(Sc2ccc(F)cc2)c(Oc2ncc(Cl)cn2)nn1C [Example I-060] | 80 | 90 | 100 | 90 | 80 | 80 | 100 | 100 | 80 | – | 100 | – | 80 | – | – | – | 90 | – | 100 | 100 | herbicidal activity on Matricaria inodora (Matricaria inodora [24]): 80%; herbicidal activity on Veronica persica (Veronica persica [25]): 90%; herbicidal activity on Veronica persica (Veronica persica [22]): 100%
Cc1c(Sc2ccc(F)cc2Cl)c(Oc2ncc(F)cn2)nn1C [Example I-065] | 80 | – | 100 | – | 100 | – | 90 | 100 | 80 | – | 100 | – | – | – | – | 90 | 100 | 100 | 100 | 100 | herbicidal activity on Matricaria inodora (Matricaria inodora [24]): 80%; herbicidal activity on Pharbitis purpurea (Pharbitis purpurea [27]): 100%
Cc1c(Sc2cccc(Cl)c2)c(Oc2ncccn2)nn1C [Example I-069] | 80 | 100 | 100 | 80 | 100 | 80 | – | 100 | 100 | 100 | 100 | 100 | 100 | 100 | 100 | 100 | 100 | 100 | 100 | 100 | herbicidal activity on Hordeum murinum (Hordeum murinum [28]): 80%; herbicidal activity on Veronica persica (Veronica persica [22]): 100%
Cc1c(Sc2ccc(F)c(F)c2)c(Oc2ncc(F)cn2)nn1C [Example I-093] | 90 | 100 | 100 | 100 | 100 | 100 | 100 | 100 | 100 | 100 | 100 | 100 | 100 | 100 | 100 | 100 | 100 | 100 | 100 | 100 | herbicidal activity on Avena fatua (Avena fatua [4]): 100%; herbicidal activity on Hordeum murinum (Hordeum murinum [28]): 90%; herbicidal activity on Lolium rigidum (Lolium rigidum [6]): 100%; herbicidal activity on Pharbitis purpurea (Pharbitis purpurea [27]): 90%; herbicidal activity on Pharbitis purpurea (Pharbitis purpurea [19]): 80%; herbicidal activity on Veronica persica (Veronica persica [22]): 100%
Cc1c(Sc2ccccc2)c(Oc2ncc(F)cn2)nn1C [Example I-133] | 100 | 100 | 100 | 100 | 100 | 100 | 100 | 100 | 100 | 100 | 100 | 100 | 100 | 100 | 100 | 100 | 100 | 100 | 100 | 100 | herbicidal activity on Hordeum murinum (Hordeum murinum [28]): 90%; herbicidal activity on Lolium rigidum (Lolium rigidum [6]): 90%; herbicidal activity on Pharbitis purpurea (Pharbitis purpurea [27]): 100%; herbicidal activity on Veronica persica (Veronica persica [25]): 100%
Cc1c(Sc2ccc(F)c(F)c2)c(Oc2cnccn2)nn1C [Example I-141] | 90 | 80 | 100 | 100 | 100 | 90 | 100 | 90 | 100 | 90 | 100 | 80 | 100 | 80 | 90 | 100 | 100 | 90 | 100 | 100 | herbicidal activity on Avena fatua (Avena fatua [4]): 80%; herbicidal activity on Pharbitis purpurea (Pharbitis purpurea [27]): 80%; herbicidal activity on Veronica persica (Veronica persica [25]): 100%; herbicidal activity on Veronica persica (Veronica persica [22]): 100%
Cc1c(Sc2cccc(F)c2)c(Oc2ncc(F)cn2)nn1C [Example I-158] | 90 | 100 | 100 | 100 | 100 | 100 | 90 | 100 | 100 | 100 | 100 | 100 | 100 | 100 | 100 | 100 | 100 | 100 | 100 | 100 | herbicidal activity on Avena fatua (Avena fatua [4]): 80%; herbicidal activity on Lolium rigidum (Lolium rigidum [6]): 100%; herbicidal activity on Pharbitis purpurea (Pharbitis purpurea [27]): 80%; herbicidal activity on Veronica persica (Veronica persica [22]): 100%
